Results taken from PubChem BioAssay AID1435 (PCMD, 2008).
The source made the active and inactive calls. How the calls were made is not given here.

The compounds below were run against DNA repair protein RAD51 homolog 1 (Homo sapiens) (UniProt Q06609) (assay: RAD51 recombination inhibitor potency, dose response, biochemical, homologous recombination, fluorescence (AID 1435)). Conditions: RAD51 homologous recombination biochemical assay.
Sequence of DNA repair protein RAD51 homolog 1 (Homo sapiens) (Q06609 whole entry, looked up): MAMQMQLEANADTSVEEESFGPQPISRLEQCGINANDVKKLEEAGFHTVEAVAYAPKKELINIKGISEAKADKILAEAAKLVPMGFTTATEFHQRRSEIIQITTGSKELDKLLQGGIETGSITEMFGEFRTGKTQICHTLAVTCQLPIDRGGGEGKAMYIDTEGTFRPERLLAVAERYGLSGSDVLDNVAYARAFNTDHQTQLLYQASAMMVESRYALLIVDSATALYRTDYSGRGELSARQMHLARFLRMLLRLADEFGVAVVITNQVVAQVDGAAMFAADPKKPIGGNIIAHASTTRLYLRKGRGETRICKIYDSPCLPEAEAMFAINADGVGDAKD

IC50	SMILES
> 85 µM (inactive)	COC(=O)/C(=C\Nc1cccc(Cl)c1C)c1ncc(C(F)(F)F)cc1Cl
> 85 µM (inactive)	CCCCCOCC1CC(C/C(C)=N/Nc2nc(-c3ccccc3)cs2)C(=O)O1 (stereo not drawn)
1.4 µM	COc1cccc2c1C(=O)c1c(O)c3c(c(O)c1C2=O)C[C@@](O)(C(=O)CO)C[C@@H]3O[C@H]1C[C@H](N)[C@@H](O)[C@H](C)O1
